The values that follow come from patent publication US20090111778A1, “2-Keto-Oxazoles as Modulators of Fatty Acid Amide Hydrolase” (priority 2005, published 2009).

pIC50: −log10 of the molar value.

In assay [1] the target is T1, human FAAH (Homo sapiens, UniProt O00519).
T1 construct: expressed in transfected cells
T1 sequence (O00519 1-579): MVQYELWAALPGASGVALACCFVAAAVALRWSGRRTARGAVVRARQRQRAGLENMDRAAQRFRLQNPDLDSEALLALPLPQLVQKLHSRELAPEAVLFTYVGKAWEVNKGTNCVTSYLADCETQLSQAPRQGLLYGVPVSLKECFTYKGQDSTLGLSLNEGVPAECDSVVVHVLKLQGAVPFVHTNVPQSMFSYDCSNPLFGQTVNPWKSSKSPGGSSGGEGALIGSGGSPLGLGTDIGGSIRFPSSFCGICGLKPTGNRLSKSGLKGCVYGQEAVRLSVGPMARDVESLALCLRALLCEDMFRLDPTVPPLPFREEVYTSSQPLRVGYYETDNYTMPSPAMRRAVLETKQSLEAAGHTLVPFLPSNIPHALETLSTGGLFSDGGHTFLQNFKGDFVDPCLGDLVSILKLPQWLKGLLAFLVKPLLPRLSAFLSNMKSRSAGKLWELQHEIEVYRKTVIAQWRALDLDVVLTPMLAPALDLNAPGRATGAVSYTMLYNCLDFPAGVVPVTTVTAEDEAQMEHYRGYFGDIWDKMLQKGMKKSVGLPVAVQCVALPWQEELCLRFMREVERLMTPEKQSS
Put plainly: Assay Method 1: FAAH assay, hydrolysis of 3H-anandamide by homogenate of SK-N-MC cells transfected with human FAAH. The class given is biochemical. The note with it: human FAAH; T84 or transfected SK-N-MC cell homogenate; 3H-AEA tracer 80 nM; rt 1 h; pH 9; read-out: Assay 1 IC50. Here is the method:
A. Transfection of Cells with Human FAAH
(§1) A 10-cm tissue culture dish with a confluent monolayer of SK-N-MC cells was split 2 days (d) prior to transfection. Using sterile technique, the media was removed and the cells were detached from the dish by the addition of trypsin. One fifth of the cells were then placed onto a new 10-cm dish. Cells were grown in a 37° C. incubator with 5% CO2 in Minimal Essential Media Eagle with 10% Fetal Bovine Serum. After 2 d, cells were approximately 80% confluent. These cells were removed from the dish with trypsin and pelleted in a clinical centrifuge. The pellet was re-suspended in 400 μL complete media and transferred to an electroporation cuvette with a 0.4 cm gap between the electrodes. Supercoiled human FAAH cDNA (1 μg) was added to the cells and mixed. The voltage for the electroporation was set at 0.25 kV, and the capacitance was set at 960 μF. After electroporation, the cells were diluted into complete media (10 mL) and plated onto four 10-cm dishes. Because of the variability in the efficiency of electroporation, four different concentrations of cells were plated. The ratios used were 1:20, 1:10, and 1:5, with the remainder of the cells being added to the fourth dish. The cells were allowed to recover for 24 h before adding the selection media (complete media with 600 μg/mL G418). After 10 d, dishes were analyzed for surviving colonies of cells. Dishes with well-isolated colonies were used. Cells from individual colonies were isolated and tested.
The assay mixture consisted of […] of the cell homogenate, 10 μL of the test compound, and 40 μL of anandamide [1-^3H-ethanolamine] (3H-AEA, Perkin-Elmer, 10.3 Ci/mmol), which was added last, for a final tracer concentration of 80 nM. The reaction mixture was incubated at rt for 1 h. During the incubation, 96-well Multiscreen filter plates (catalog number MAFCNOB50; Millipore, Bedford, Mass., USA) were loaded with 25 μL of activated charcoal (Multiscreen column loader, catalog number MACL09625, Millipore) and washed once with 100 μL of MeOH. Also during the incubation, 96-well DYNEX MicroLite plates (catalog number NL510410) were loaded with 100 μL of MicroScint40 (catalog number 6013641, Packard Bioscience, Meriden, Conn., USA). After the 1 h incubation, 60 μL of the reaction mixture were transferred to the charcoal plates, which were then assembled on top of the DYNEX plates using Centrifuge Alignment Frames (catalog number MACF09604, Millipore). The unbound labeled ethanolamine was centrifuged through to the bottom plate (5 min at 2000 rpm), which was preloaded with the scintillant, as described above. The plates were sealed and left at rt for 1 h before counting on a Hewlett Packard TopCount.

Assay [2] concerns the target T2, rat FAAH (Rattus norvegicus, UniProt P97612).
T2 construct: expressed in transfected cells
T2 sequence (P97612 1-579): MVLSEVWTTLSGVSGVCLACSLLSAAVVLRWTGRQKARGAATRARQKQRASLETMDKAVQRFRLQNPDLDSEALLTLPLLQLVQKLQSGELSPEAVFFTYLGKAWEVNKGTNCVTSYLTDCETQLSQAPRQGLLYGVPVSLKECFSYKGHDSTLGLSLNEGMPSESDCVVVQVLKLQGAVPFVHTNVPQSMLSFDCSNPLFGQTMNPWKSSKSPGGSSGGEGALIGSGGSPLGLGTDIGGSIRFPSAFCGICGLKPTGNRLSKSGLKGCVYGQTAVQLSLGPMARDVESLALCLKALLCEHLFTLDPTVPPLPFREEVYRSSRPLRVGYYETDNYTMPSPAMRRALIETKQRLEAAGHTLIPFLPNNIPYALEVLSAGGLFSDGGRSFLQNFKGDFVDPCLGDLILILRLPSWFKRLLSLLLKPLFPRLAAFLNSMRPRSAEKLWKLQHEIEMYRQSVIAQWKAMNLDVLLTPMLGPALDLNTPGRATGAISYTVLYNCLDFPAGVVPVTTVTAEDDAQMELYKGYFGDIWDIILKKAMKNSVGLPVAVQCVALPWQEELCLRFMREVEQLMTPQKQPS
The assay is described as follows: Assay Method 2: FAAH assay, hydrolysis of 3H-anandamide by homogenate of SK-N-MC cells transfected with rat FAAH. The note with it: T84 or transfected SK-N-MC cell homogenate, 3H-AEA tracer 80 nM, rt 1 h, pH 9. The assay is classed as biochemical. As to the method:
as §1, with “A. Transfection of Cells with Rat FAAH A 10-cm” for “A 10-cm”, “electrodes. Supercoiled rat FAAH cDNA” for “electrodes. Supercoiled human FAAH cDNA”, “and tested. […] B. FAAH Assay […] The reaction mixture was incubated at rt for 1 h. During the incubation, 96-well Multiscreen filter plates (catalog number MAFCNOB50; Millipore, Bedford, Mass., USA) were loaded with 25 μL of activated charcoal (Multiscreen column loader, catalog number MACL09625, Millipore) and washed once with 100 μL of MeOH. Also during the incubation, 96-well DYNEX MicroLite plates (catalog number NL510410) were loaded with 100 μL of MicroScint40 (catalog number 6013641, Packard Bioscience, Meriden, Conn., USA). After the 1 h incubation, 60 μL of the reaction mixture were transferred to the charcoal plates, which were then assembled on top of the DYNEX plates using Centrifuge Alignment Frames (catalog number MACF09604, Millipore). The unbound labeled ethanolamine was centrifuged through to the bottom plate (5 min at 2000 rpm), which was preloaded with the scintillant, as described above. The plates were sealed and left at rt for 1 h before counting on a Hewlett Packard TopCount.” for “and tested.”

A word on the pIC50: it is the IC50 on a negative log10 scale, so that one unit is a factor of ten. On to `O=C(CCCC1CCN(Cc2ccc(Oc3ccccc3)cc2)CC1)c1ncco1` [Example 15, 1-Oxazol-2-yl-4-[1-(4-phenoxy-benzyl)-piperidin-4-yl]-butan-1-one], for which the pIC50 is 8.40 in assay [1] and 8.62 in assay [2]. In the same order, the values of `O=C(CCCC1CCN(Cc2ccc(Cl)cc2)CC1)c1ncco1` [Example 9, 4-[1-(4-Chloro-benzyl)-piperidin-4-yl]-1-oxazol-2-yl-butan-1-one] are 7.18 and 6.45. With `CC(C)(C)c1ccc(CN2CCC(CCCC(=O)c3ncco3)CC2)cn1` [Example 139, 4-[1-(6-tert-Butyl-pyridin-3-ylmethyl)-piperidin-4-yl]-1-oxazol-2-yl-butan-1-one], the pIC50 in assay [1] is 7.30; in assay [2], 6.26.

Turning to `O=C(CCCC1CCN(Cc2ccccc2Br)CC1)c1ncco1` [Example 85, 4-[1-(2-Bromo-benzyl)-piperidin-4-yl]-1-oxazol-2-yl-butan-1-one], the pIC50 in assay [1] is 6.50; in assay [2], 6.62. The matching figures for `CCCS(=O)(=O)N1CCC(CCCC(=O)c2ncco2)CC1` [Example 57, 1-Oxazol-2-yl-4-[1-(propane-1-sulfonyl)-piperidin-4-yl]-butan-1-one]: 6.92 and 5.80. In the same order, the values of `CC(C)c1ccc(CN2CCC(CCCC(=O)c3ncco3)CC2)cc1` [Example 22, 4-[1-(4-Isopropyl-benzyl)-piperidin-4-yl]-1-oxazol-2-yl-butan-1-one] are 8.52 and 8.30. For `O=C(CCCC1CCN(Cc2ccc(Br)nc2)CC1)c1ncco1` [Example 76, 4-[1-(6-Bromo-pyridin-3-ylmethyl)-piperidin-4-yl]-1-oxazol-2-yl-butan-1-one], the negative-log IC50 (pIC50) in assay [1] is 6.40; in assay [2], 6.19. Turning to `O=C(CCCC1CCN(C(=O)OCCOCc2ccccc2)CC1)c1ncco1` [Example 66, 4-(4-Oxazol-2-yl-4-oxo-butyl)-piperidine-1-carboxylic acid 2-benzyloxy-ethyl ester], the results for the pIC50 in assay [1] and in assay [2] were 9.15 and 8.70, respectively. As for `O=C(CCCC1CCN(Cc2ccccc2)CC1)c1ncc(-c2ccco2)o1` [Example 121, 4-(1-Benzyl-piperidin-4-yl)-1-(5-furan-2-yl-oxazol-2-yl)-butan-1-one], the values for the pIC50 in assay [1] and in assay [2] were 6.59 and 6.49, respectively. `O=C(CCCC1CCN(Cc2cccc(Cl)c2)CC1)c1ncco1` [Example 10, 4-[1-(3-Chloro-benzyl)-piperidin-4-yl]-1-oxazol-2-yl-butan-1-one]: the results for the pIC50 in assay [1] and in assay [2] were 7.22 and 7.10, respectively. The matching figures for `CC(C)CC(=O)N1CCC(CCCC(=O)c2ncco2)CC1` [Example 26, 3-Methyl-1-[4-(4-oxazol-2-yl-4-oxo-butyl)-piperidin-1-yl]-butan-1-one]: 6.40 and 6.05. In the case of `CC(C)Cc1ccc(CN2CCC(CCCC(=O)c3ncco3)CC2)cc1` [Example 82, 4-[1-(4-Isobutyl-benzyl)-piperidin-4-yl]-1-oxazol-2-yl-butan-1-one], the values for the pIC50 in assay [1] and in assay [2] were 7.64 and 7.31, respectively. As to `O=C(CCCC1CCN(C(=O)CCc2cccnc2)CC1)c1ncco1` [Example 47, 1-Oxazol-2-yl-4-[1-(3-pyridin-3-yl-propionyl)-piperidin-4-yl]-butan-1-one], the pIC50 is 6.40 in assay [1] and 6.15 in assay [2]. In the case of `O=C(CCCC1CCN(CC2CCCCC2)CC1)c1ncco1` [Example 86, 4-(1-Cyclohexylmethyl-piperidin-4-yl)-1-oxazol-2-yl-butan-1-one], in assay [1], the pIC50 was 5.02. Still for that read-out and setting: to `O=C(CCCC1CCN(Cc2ccc(N3CCOCC3)cc2)CC1)c1ncco1` [Example 106, 4-[1-(4-Morpholin-4-yl-benzyl)-piperidin-4-yl]-1-oxazol-2-yl-butan-1-one] belongs 5.70. Regarding `O=C(CCCC1CCN(Cc2ccccn2)CC1)c1ncco1` [Example 4, 1-Oxazol-2-yl-4-(1-pyridin-2-ylmethyl-piperidin-4-yl)-butan-1-one], the pIC50 in assay [1] is 5.52. On the same count and under the same terms, to `Cc1cc(CC(=O)N2CCC(CCCC(=O)c3ncco3)CC2)on1` [Example 43, 4-{1-[2-(3-Methyl-isoxazol-5-yl)-acetyl]-piperidin-4-yl}-1-oxazol-2-yl-butan-1-one] belongs 5.40. In assay [2], `O=C(CCCC1CCN(CCc2ccccc2)CC1)c1ncco1` [Example 95, 1-Oxazol-2-yl-4-(1-phenethyl-piperidin-4-yl)-butan-1-one] showed a pIC50 of 5.92. Regarding `COc1ccccc1CN1CCC(CCCC(=O)c2ncco2)CC1` [Example 87, 4-[1-(2-Methoxy-benzyl)-piperidin-4-yl]-1-oxazol-2-yl-butan-1-one], in assay [1], the pIC50 was 5.40.
